One test has as its target T1, human D3 receptors (Homo sapiens, UniProt P35462).
T1 construct: expressed in transfected cells
The experiment in a line: Inhibition of [^3 H]spiperone binding to human D3 receptors. The procedure: (§1) Dopamine D2 antagonists are established as antipsychotic agents. More recently, the dopamine D3 receptor has been identified. On the basis of the localization of the dopamine D3 receptor in the limbic area of the brain, a selective D3 antagonist should show antipsychotic activity but not have the neurological side effects of D2 antagonists. […] Thus, the compounds of Formula I were tested for their ability to bind to dopamine receptors as measured by their inhibition of [^3 H]spiperone binding to the human D2 and D3 receptors in a receptor assay described by MacKenzie R. G., et al., Characterization of the human D3 dopamine receptor expressed in transfected cell lines, Eur. J. Pharmacol., 266:79 (1994); and for their ability to inhibit locomotor activity in mice and rats, a measure of antipsychotic activity, according to the assay described by McLean J. R., et al., Pharmacology, Biochemistry and Behavior, 8:97- 99 (1978). The above test methods are incorporated herein by reference.

In a further test the target is T2, human D2 receptors (Homo sapiens, UniProt P14416).
T2 construct: expressed in transfected cells
The experiment in a line: Inhibition of [^3 H]spiperone binding to human D2 receptors. The procedure: as §1

In a further test the test system is rats. Description: Inhibition of locomotor activity in rats. It counts as in vivo. To be noted: Rattus norvegicus, IP. An excerpt:
The compounds of Formula I are valuable dopaminergic agents. Dopamine D2 antagonists are established as antipsychotic agents. More recently, the dopamine D3 receptor has been identified. On the basis of the localization of the dopamine D3 receptor in the limbic area of the brain, a selective D3 antagonist should show antipsychotic activity but not have the neurological side effects of D2 antagonists. The tests employed indicate that compounds of Formula I bind selectively to the dopamine D3 receptor. Thus, the compounds of Formula I were tested for their ability to bind to dopamine receptors as measured by their inhibition of [^3 H]spiperone binding to the human D2 and D3 receptors in a receptor assay described by MacKenzie R. G., et al., Characterization of the human D3 dopamine receptor expressed in transfected cell lines, Eur. J. Pharmacol., 266:79 (1994); and for their ability to inhibit locomotor activity in mice and rats, a measure of antipsychotic activity, according to the assay described by McLean J. R., et al., Pharmacology, Biochemistry and Behavior, 8:97- 99 (1978). The above test methods are incorporated herein by reference.

T2 sequence (P14416 whole entry): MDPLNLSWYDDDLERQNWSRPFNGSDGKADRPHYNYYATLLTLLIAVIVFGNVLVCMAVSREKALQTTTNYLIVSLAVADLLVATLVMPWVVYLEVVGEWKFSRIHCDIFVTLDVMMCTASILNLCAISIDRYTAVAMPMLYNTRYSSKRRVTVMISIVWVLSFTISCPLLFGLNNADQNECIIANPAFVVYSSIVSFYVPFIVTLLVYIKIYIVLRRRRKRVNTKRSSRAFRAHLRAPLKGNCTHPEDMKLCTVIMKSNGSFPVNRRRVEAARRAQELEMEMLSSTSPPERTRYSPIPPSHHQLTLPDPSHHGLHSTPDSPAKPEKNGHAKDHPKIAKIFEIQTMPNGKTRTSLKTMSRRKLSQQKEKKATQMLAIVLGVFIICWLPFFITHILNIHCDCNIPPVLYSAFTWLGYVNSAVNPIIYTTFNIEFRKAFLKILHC
T1 sequence (P35462 whole entry): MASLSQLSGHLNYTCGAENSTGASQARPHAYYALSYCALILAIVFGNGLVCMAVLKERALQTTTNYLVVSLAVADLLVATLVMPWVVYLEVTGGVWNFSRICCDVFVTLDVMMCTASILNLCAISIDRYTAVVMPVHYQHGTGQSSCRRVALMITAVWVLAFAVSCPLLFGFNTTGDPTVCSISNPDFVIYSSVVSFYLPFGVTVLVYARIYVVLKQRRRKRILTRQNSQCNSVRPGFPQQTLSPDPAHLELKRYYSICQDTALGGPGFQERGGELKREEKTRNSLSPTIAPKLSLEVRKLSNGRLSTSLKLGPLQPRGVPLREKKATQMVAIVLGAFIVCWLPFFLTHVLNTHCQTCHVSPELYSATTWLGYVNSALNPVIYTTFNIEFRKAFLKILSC

In turn, `C(=C\Cn1c(-c2ccc(OCCCN3CCCC3)cc2)nc2ccccc21)/Cn1c(-c2ccc(OCCCN3CCCC3)cc2)nc2ccccc21` [Example 1] gave an IC50 on human D3 receptors of 0.009 µM.
For the compound `CCCN(CCC)CCCOc1ccc(-c2nc3ccccc3n2C/C=C/Cn2c(-c3ccc(OCCCN(CCC)CCC)cc3)nc3ccccc32)cc1` [Example 2, E-(3-{4-[1-(4-{2-[4-(3-Dipropylaminopropoxy)phenyl]benzoimidazol-1-yl}but-2-enyl)-1H-benzoimidazol-2-yl]phenoxy}propyl)dipropylamine], the half-maximal inhibitory concentration (IC50) at human D3 receptors stood at 0.005 µM.
Compound `CN(C)CCCOc1ccc(-c2nc3ccccc3n2C/C=C/Cn2c(-c3ccc(OCCCN(C)C)cc3)nc3ccccc32)cc1` [Example 5, E-(3-{4-[1-(4-{2-[4-(3-Dimethylaminopropoxy)phenyl]benzoimidazol-1-yl}but-2-enyl)-1H-benzoimidazol-2-yl]phenoxy}propyl)dimethylamine] registered a 50% inhibitory concentration (IC50) at human D3 receptors of 0.143 µM.
With `C(=C\Cn1c(-c2ccc(OCCCN3CCCCC3)cc2)nc2ccccc21)/Cn1c(-c2ccc(OCCCN3CCCCC3)cc2)nc2ccccc21` [Example 6], the half-inhibitory concentration (IC50) at human D3 receptors amounted to 0.009 µM.
Turning to `CCN(CC)CCCOc1cccc(-c2nc3ccccc3n2C/C=C/Cn2c(-c3cccc(OCCCN(CC)CC)c3)nc3ccccc32)c1` [Example 7, E-(3-{3-[1-(4-{2-[3-(3-Diethylaminopropoxy)phenyl]benzoimidazol-1-yl}but-2-enyl)-1H-benzoimidazol-2-yl]phenoxy}propyl)diethylamine], the figures for the IC50 on human D2 receptors and at human D3 receptors were 2.45 µM and 0.016 µM, respectively.
On human D2 receptors, `CCCCN(CCCC)CCCOc1ccc(-c2nc3ccccc3n2C/C=C/Cn2c(-c3ccc(OCCCN(CCCC)CCCC)cc3)nc3ccccc32)cc1` [Example 8, E-Dibutyl-(3-{4-[1-(4-{2-[4-(3-dibutylaminopropoxy)phenyl]benzoimidazol-1-yl}-but-2-enyl)-1H-benzoimidazol-2-yl]phenoxy}propyl)amine] returned a half-maximal inhibitory concentration (IC50) of 0.427 µM.
Regarding `CC(C)N(C)CCCOc1ccc(-c2nc3ccccc3n2C/C=C/Cn2c(-c3ccc(OCCCN(C)C(C)C)cc3)nc3ccccc32)cc1` [Example 9, E-Isopropyl-[3-(4-{1-[4-(2-{4-[3-(isopropylmethylamino)propoxy]phenyl}benzoimidazol-1-yl)but-2-enyl]-1H-benzoimidazol-2-yl}phenoxy)propyl]methylamine], the concentration for half-maximal inhibition (IC50) was 0.2 µM on human D2 receptors and 0.006 µM at human D3 receptors.
As to `CCN(CC)CCCOc1ccc(-c2nc3ccccc3n2C/C=C/Cn2c(-c3ccc(OCCCN(CC)CC)cc3)nc3ccccc32)cc1` [Example 10, E-(3-{4-[1-(4-{2-[4-(3-Diethylaminopropoxy)phenyl]benzoimidazol-1-yl}but-2-enyl)-1H-benzoimidazol-2-yl]phenoxy}propyl)diethylamine], the 50% effect level in the test with rats (ED50) was put at a dose of 3.9 mg/kg. On human D3 receptors, this compound registered an IC50 of 0.016 µM.
For the compound `CCCN(CCC)CCCOc1ccc(-c2nc3ccccc3n2CCCCn2c(-c3ccc(OCCCN(CCC)CCC)cc3)nc3ccccc32)cc1` [Example 11, (3-{4-[1-(4-{2-[4-(3-Dipropylaminopropoxy)phenyl]benzoimidazol-1-yl}butyl)-1H-benzoimidazol-2-yl]phenoxy}propyl)dipropylamine], the values for the half-inhibitory concentration (IC50) on human D2 receptors and at human D3 receptors were 2.74 µM and 0.016 µM, respectively.
Turning to `CCN(CC)CCCOc1ccc(-c2nc3ccccc3n2CCCCn2c(-c3ccc(OCCCN(CC)CC)cc3)nc3ccccc32)cc1` [Example 12, (3-{4-[1-(4-{2-[4-(3-Diethylaminopropoxy)phenyl]benzoimidazol-1-yl}butyl)-1H-benzoimidazol-2-yl]phenoxy}propyl)diethylamine], the ED50 in the test on rats is 2.8 mg/kg. For the same compound, the figures for the concentration for half-maximal inhibition (IC50) at human D2 receptors and on human D3 receptors were 1.07 µM and 0.036 µM, respectively.
The compound `CCN(CC)CCCOc1ccc(-c2nc3ccccc3n2C/C=C/Cn2c(-c3ccccc3)nc3ccccc32)cc1` [Example 13, Diethyl-[3-(4-{1-[4-(2-phenylbenzoimidazol-1-yl)but-2-enyl]-1H-benzoimidazol-2-yl}phenoxy)propyl]amine] showed an IC50 on human D2 receptors of 6.43 µM.
Regarding `NCCCOc1ccc(-c2nc3ccccc3n2C/C=C/Cn2c(-c3ccc(OCCCN4CCN(c5ccccc5)CC4)cc3)nc3ccccc32)cc1` [Example 15], the values for the IC50 at human D2 receptors and on human D3 receptors were 0.803 µM and 0.019 µM, respectively.
With `CCN1CCCC1CNC(=O)c1ccc(-c2nc3ccccc3n2CCCCn2c(-c3ccc(C(=O)NCC4CCCN4CC)cc3)nc3ccccc32)cc1` (centres unmarked) [Example 16], the IC50 at human D2 receptors came out at 1.43 µM; on human D3 receptors, 0.085 µM.
The matching figures for `CCN(CC)CCNC(=O)c1ccc(-c2nc3ccccc3n2CCCCn2c(-c3ccc(C(=O)NCCN(CC)CC)cc3)nc3ccccc32)cc1` [Example 17]: 3.07 µM and 0.11 µM.

Usually IC50 stands for the concentration that inhibits the measured activity by half. For orientation: ED50 means the midpoint of the dose-response relation. A high value points to weaker potency.

The values are drawn from patent US5414010A, “Dimeric benzimidazoles as central nervous system agents” (Warner-Lambert Company, priority 1994, dated 1995).
